Results reported in patent US6352722B1, “Derivatized carbohydrates, compositions comprised thereof and methods of use thereof” (Quadrant Holdings Cambridge Limited, priority 1997, dated 2002).

Assays:
[1] = Tg of HDC formulations with incorporated active; type: physicochemical
Source text: (§1) The model hydrophilic drug, diltiazem hydrochloride (“hydrophilic active”), was incorporated (10% loading) into solid vehicles of the single straight chain HDC trehalose octaacetate or the branched chain HDCs trehalose octa-3,3, dimethylbutyrate and trehalose octapivalate as well as composite formulations (1:1 ratio) of the two branched-chain HDCs or the straight chain HDC trehalose octaacetate and the branched chain HDC trehalose octapivalate, by quenching from the melt. Release of the active from the HDC solid dose delivery vehicle was assessed using an in vitro USP (volume 23) type 2 dissolution test in saline containing 0.1% sodium cholate as the dissolution medium.
The model hydrophilic drug diltiazem hydrochloride was also incorporated (5% loading) into solid vehicles of the single branched chain HDCs trehalose diisobutyrate hexaacetate and trehalose octapivalate and composite formulations (1:1 ratio) of the two branched-chain HDCs by solvent removal by rotary evaporation, in a Buchi Rotavapor R-124, of a 20% solution of active plus HDCs in a dichloromethane: acetone mixed solvent (9:1 ratio) system. […] (trehalose octapivalate) of the single branched-chain HDC formulations of active.
(§2) The model hydrophobic steroid fluticasone propionate (“hydrophobic active”) was incorporated (5% loading) into solid vehicles of the single straight chain HDC trehalose octaacetate or the branched chain HDCs trehalose octa-3,3, dimethylbutyrate and trehalose dipropanoate hexaacetate and composite formulations (1:1 ratio) of the two branched-chain HDCs by either quenching from the melt or solvent evaporation by rotary evaporation. Melt incorporation was carried out by melting the HDCs at 150-170° C. and dissolving the active in the melt at 120-140° C. Rotary evaporation was carried out using a Buchi Rotavapor R-124 using a 20% solution of active plus HDCs in a dichloromethane: acetone mixed solvent (9:1 ratio) system. The hydrophobic active was also incorporated into solid vehicles of the branched chain HDCs, trehalose octapivalate, trehalose diisobutyrate hexaacetate and lactose isobutyrate heptaacetate, either by quenching from the melt or solvent evaporation by rotary evaporation. Release of hydrophobic active from the HDC solid dose delivery vehicle was assessed using an in vitro USP (volume 23) type 2 dissolution test in saline containing 0.1% sodium cholate as the dissolution medium.
(§3) As an example of a polypeptide drug, the polypeptide hormone insulin (“polypeptide active”) was incorporated (10% loading) into solid vehicles of the single branched chain HDCs trehalose diisobutyrate hexaacetate and trehalose hexapivalate and composite formulations of the branched chain HDCs trehalose diisobutyrate hexaacetate and trehalose octapivalate (8:1 ratio) by solvent removal by lyophilization of a 20% solution of insulin plus HDCs in dimethylsulfoxide. […] Release of active from the HDC solid dose delivery vehicle was assessed using an in vitro USP (volume 23) type 2 dissolution test in saline containing 0.1% sodium cholate as the dissolution medium.

[2] = Glass formation, crystallization and glass stability above ambient temperature; type: physicochemical
Source text: In the usual process to form a vitreous glass, a high temperature melt is quenched (cooled quickly) to solidify without crystallization to a vitreous glass. Most glassy materials can theoretically quench to a vitreous glass, however, factors such as low melt viscosity, thermodynamically favorable crystalline states and thermal degradation, limit their potential to form vitreous rather than crystalline solids.
(§4) The carbohydrate derivatives were routinely synthesized by standard esterification of the carbohydrate with the chloride of the desired hydrocarbon side chain under anhydrous conditions and the resulting derivatives purified by standard techniques of solvent extraction and re-crystallization. For example, trehalose octa-3,3-dimethylbutyrate was synthesized by reacting 3,3,-dimethylbutyroyl chloride with trehalose in anhydrous pyridine, followed by extraction with ether, hydrochloric acid, potassium carbonate solution and water and finally re-crystallized twice from alcohol to yield colorless, needle-like crystals (˜80% yield) of m.pt 138-140° C., αD 112°. Trehalose hexa-3,3-dimethylbutyrate (THEX) can be prepared by protecting the 6,6′-hydroxy group of trehalose with a bulky group such as trityl or t-butyldiphenylsilyl, for example by heating trehalose and trityl chloride in pyridine. The 6,6′-ditrityltrehalose can be acylated with 3,3-dimethylbutyroyl chloride in pyridine to give 6,6′-ditritylhexa-3,3-dimethylbutyryltrehalose. The trityl group can be removed by strong acid, for example hydrogen bromide in acetic acid, to give THEX. TACT can be prepared by acylating THEX with acetic anhydride in pyridine. Suitable work-up yields the HDC in crystalline form. The physical characteristics, melting points and glass transition temperatures (Tg, ° C.) of selected carbohydrate derivatives are shown in Tables 1-5.
This unusual property of branched-chain derivatives enables more hydrophobic derivatives (compared to the acetates) to be prepared, which permits further reduction of drug release rates for longer term applications.

[3] = Glass transition temperature (Tg) of derivatized carbohydrates, by DSC; type: physicochemical
Source text: The reaction product can be characterized structurally by methods known in the art, including, but not limited to, nuclear magnetic resonance spectroscopy (NMR) and its material science properties characterized by differential scanning calorimetry (DSC). The characteristic melting points and Tgs (glass transition temperatures) for the derivatized carbohydrates can also be determined by DSC and other methods known in the art.
as §4

[4] = Devitrification / glass stability when immersed in aqueous media; conditions: immersed in saline medium at 37° C.
[5] = In vitro USP (volume 23) type 2 dissolution test, release of active from HDC solid vehicle; type: physicochemical; conditions: saline with 0.1% sodium cholate; for release of fluticasone propionate from single HDC formulation: compared to trehalose octaacetate formulation Q1 (FIG. 3)
Source text: as §1, §2, §3

[6] = hydrophobic active (fluticasone propionate, 5% loading) incorporated
[7] = derivatized carbohydrate alone, Tables 1-4
[8] = derivatized carbohydrate without active, Table 5
[9] = polypeptide active (insulin, 10% loading) incorporated by lyophilization from dimethylsulfoxide
[10] = hydrophilic active (diltiazem hydrochloride) incorporated

| Tg (° C.) with active incorporated [1, 6] [°C] | Tg(° C.) [3, 7] [°C] | Tg(° C.) [3, 8] [°C] | Compound | also measured |
| --- | --- | --- | --- | --- |
| – | 64 | – | Trehalose hexa-3,3-dimethylbutyrate | stability of the glassy state [4]: stable in the glassy state |
| – | 53 | – | CC(=O)OCC1OC(OC2C(COC(C)=O)OC(OC(C)=O)C(OC(C)=O)C2OC(C)=O)C(OC(C)=O)C(OC(C)=O)C1OC(C)=O (stereo not drawn) [β-Cellobiose octaacetate, reference compound] | COMMENT: glass formation / glass stability above ambient temperature [2]: Good glass former |
| – | 86 | 86 | Trehalose hexapivalate | Tg (° C.) with active incorporated [1, 9]: 76.5 °C |
| 80 | 81 | 80 | CC(C)(C)C(=O)OC[C@H]1O[C@H](O[C@H]2O[C@H](COC(=O)C(C)(C)C)[C@@H](OC(=O)C(C)(C)C)[C@H](OC(=O)C(C)(C)C)[C@H]2OC(=O)C(C)(C)C)[C@H](OC(=O)C(C)(C)C)[C@@H](OC(=O)C(C)(C)C)[C@@H]1OC(=O)C(C)(C)C [Trehalose octapivalate] | Tg (° C.) with active incorporated [1, 10]: 83.7 °C; release of fluticasone propionate from single HDC formulation [5]: much slower release |
| – | 65 | – | CC(=O)OCC1OC(OC2C(COC(C)=O)OC(OC(C)=O)C(OC(C)=O)C2OC(C)=O)C(OC(C)=O)C(OC(C)=O)C1OC(C)=O (stereo not drawn) [α-Cellobiose octaacetate, reference compound] | COMMENT: glass formation / glass stability above ambient temperature [2]: Poor glass former |
| 53 | 55 | 50 | CC(=O)OCC1OC(OC2OC(COC(C)=O)C(OC(C)=O)C(OC(C)=O)C2OC(C)=O)C(OC(C)=O)C(OC(C)=O)C1OC(C)=O (stereo not shown) [Trehalose octaacetate, reference compound] | release of active (insulin) ([5]; after 1 hour in the dissolution assay): 88% |
| 45 | 42 | 46 | CC(C)(C)CC(=O)OC[C@H]1O[C@H](O[C@H]2O[C@H](COC(=O)CC(C)(C)C)[C@@H](OC(=O)CC(C)(C)C)[C@H](OC(=O)CC(C)(C)C)[C@H]2OC(=O)CC(C)(C)C)[C@H](OC(=O)CC(C)(C)C)[C@@H](OC(=O)CC(C)(C)C)[C@@H]1OC(=O)CC(C)(C)C [Trehalose octa-3,3-dimethylbutyrate] | release of diltiazem hydrochloride (DZM) from single HDC formulation ([5]; 10% loading, compared to trehalose octaacetate formulation (FIG. 1)): much slower release; release of fluticasone propionate from single HDC formulation [5]: much slower release |

Second part, the compound before the results:

| Compound | Tg (° C.) with active incorporated [1, 6] [°C] | Tg(° C.) [3, 7] [°C] | Tg(° C.) [3, 8] [°C] | also measured |
| --- | --- | --- | --- | --- |
| CC(=O)OC[C@H]1O[C@@H](O[C@H]2[C@H](OC(C)=O)[C@@H](OC(C)=O)C(OC(=O)C(C)C)O[C@@H]2COC(C)=O)[C@H](OC(C)=O)[C@@H](OC(C)=O)[C@H]1OC(C)=O (stereo partly shown) [Lactose isobutyrate heptaacetate] | 59 | 60 | 60 | crystallization from solution ([2]; blend: small amount of the corresponding anomer added): fails to crystallize; crystallization from solution ([2]; pure α,β anomers): crystallize from solution |
| CC(C)C(=O)OCC1OC(OC2C(COC(=O)C(C)C)OC(OC(=O)C(C)C)C(OC(=O)C(C)C)C2OC(=O)C(C)C)C(OC(=O)C(C)C)C(OC(=O)C(C)C)C1OC(=O)C(C)C (stereo not shown) [Cellobiose octaisobutyrate] | – | – | – | COMMENT: glass formation / glass stability above ambient temperature [2]: very hard to quench to glass |
| Trehalose dipropanoate hexaacetate | 44 | – | 38 | – |
| Trehalose diisobutyrate hexaacetate | 50 | – | 42 | Tg (° C.) with active incorporated [1, 10]: 46.5 °C; Tg (° C.) with active incorporated [1, 9]: 50.1 °C |
| CC(=O)OC[C@H]1O[C@H](O[C@H]2O[C@H](COC(C)=O)[C@@H](OC(=O)CC(C)(C)C)[C@H](OC(=O)CC(C)(C)C)[C@H]2OC(=O)CC(C)(C)C)[C@H](OC(=O)CC(C)(C)C)[C@@H](OC(=O)CC(C)(C)C)[C@@H]1OC(=O)CC(C)(C)C [Trehalose 6,6′-diaacetate hexa-3,3-dimethylbutyrate] | – | 44 | – | stability of the glassy state [4]: the glass stability is reduced |
